Results published in the NIST ThermoML archive (doi:10.1021/je1002626).

How the values were obtained:
[1] = 101.33 kPa, Liquid, Pycnometric method
[2] = wn = mass fraction of the nth substance listed; conditions: for surface tension liquid-gas: Ring tensiometer; for mass density: 101.3 kPa, Liquid, Pycnometric method

CNCCO [2-(methylamino)ethanol]
[1]
Conditions | mass density [kg/m3]
298.15 K | 936.18
303.15 K | 932.26
313.15 K | 924.42
323.15 K | 916.48

CNCCO [2-(methylamino)ethanol] + O
[2]
Conditions | mass density [kg/m3] | surface tension liquid-gas [mN/m]
298 K, w1 = 0.1 | – | 60.85
298 K, w1 = 0.2 | – | 56.11
298 K, w1 = 0.3 | – | 52.51
298 K, w1 = 0.4 | – | 49.16
298.15 K, w1 = 0.178 | 996.31 | –
298.15 K, w1 = 1 | 936.18 | –
303 K, w1 = 0.1 | – | 60.02
303 K, w1 = 0.2 | – | 55.28
303 K, w1 = 0.3 | – | 52.33
303 K, w1 = 0.4 | – | 48.15
303.15 K, w1 = 0.178 | 994.38 | –
303.15 K, w1 = 1 | 932.26 | –
308 K, w1 = 0.1 | – | 59.5
308 K, w1 = 0.2 | – | 54.5
308 K, w1 = 0.3 | – | 51.46
308 K, w1 = 0.4 | – | 47.2
308.15 K, w1 = 0.178 | 993.12 | –
313 K, w1 = 0.1 | – | 58.65
313 K, w1 = 0.2 | – | 53.42
313 K, w1 = 0.3 | – | 50.18
313 K, w1 = 0.4 | – | 46.67
313.15 K, w1 = 0.178 | 990.09 | –
313.15 K, w1 = 1 | 924.42 | –
318 K, w1 = 0.1 | – | 57.66
318 K, w1 = 0.2 | – | 52.78
318 K, w1 = 0.3 | – | 49.42
318 K, w1 = 0.4 | – | 45.72
318.15 K, w1 = 0.178 | 988.61 | –
323 K, w1 = 0.1 | – | 56.89
323 K, w1 = 0.2 | – | 51.79
323 K, w1 = 0.3 | – | 48.9
323 K, w1 = 0.4 | – | 44.92
323.15 K, w1 = 0.178 | 984.89 | –
323.15 K, w1 = 1 | 916.48 | –
